Reference: PubChem BioAssay AID624454 (Sanford-Burnham Center for Chemical Genomics, 2012)
Several values for one entry are separate records, joined by “and”; a condition that tells them apart may be missing. Identical values can stand only once. Activity calls are given as the source filed them.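 The calls were made as follows: active = EC50 of 10 µM or lower; inactive = the rest.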

tested on: H9c2 cardiomyocytes, 2-deoxyglucose injury, ATP luminescence, 2 h; assay: cardioprotective modulators, 2-DG ATP loss – H9c2 cells, ATP luminescence, set 2, SAR follow-up (AID 624454)

`COc1ccc2c(c1OC)C(=O)N1c3ccccc3C(=O)N(Cc3ccccc3Cl)C21` (configuration not stated) was tested. Which EC50 (protection from 2-deoxyglucose ATP loss, increase) did it give?
Its EC50 (protection from 2-deoxyglucose ATP loss, increase) is 12.8 µM (inactive).

How did the EC50 (protection from 2-deoxyglucose ATP loss, increase) turn out when `COc1ccc(NC(=O)c2cc(-c3cc(OC)c(OC)c(OC)c3)nc3ccccc23)cc1` was run?
The EC50 (protection from 2-deoxyglucose ATP loss, increase) was > 79 µM (inactive).

Which EC50 (protection from 2-deoxyglucose ATP loss, increase) does the source give for `COc1cc(-c2cc(C(=O)Nc3cccc(C)c3)c3ccccc3n2)cc(OC)c1OC` here?
The EC50 (protection from 2-deoxyglucose ATP loss, increase) was > 79 µM (inactive).

With `COc1cc(-c2cc(C(=O)Nc3cccc(C(C)=O)c3)c3cc(Cl)ccc3n2)cc(OC)c1OC` as the compound, how does the EC50 (protection from 2-deoxyglucose ATP loss, increase) read?
Its EC50 (protection from 2-deoxyglucose ATP loss, increase) is > 79 µM (inactive).

How did the EC50 (protection from 2-deoxyglucose ATP loss, increase) turn out when `O=C1c2ccccc2N2C(=O)c3ccccc3C2N1c1ccccc1` (configuration not stated) was run?
Its EC50 (protection from 2-deoxyglucose ATP loss, increase) is > 79 µM (inactive).

`COc1cc(-c2cc(C(=O)Nc3ccccc3)c3ccccc3n2)cc(OC)c1OC` was tested. Which EC50 (protection from 2-deoxyglucose ATP loss, increase) did it give?
The EC50 (protection from 2-deoxyglucose ATP loss, increase) was > 79 µM (inactive).

`COc1cccc(NC(=O)c2cc(-c3cc(OC)c(OC)c(OC)c3)nc3ccccc23)c1` was tested. Which EC50 (protection from 2-deoxyglucose ATP loss, increase) did it give?
Its EC50 (protection from 2-deoxyglucose ATP loss, increase) is > 79 µM (inactive).

How did the EC50 (protection from 2-deoxyglucose ATP loss, increase) turn out when `COc1ccc2c(c1OC)C(=O)N1c3ccccc3C(=O)N(c3cccc(C(F)(F)F)c3)C21` (configuration not stated) was run?
Its EC50 (protection from 2-deoxyglucose ATP loss, increase) is > 79 µM (inactive).

For `COc1cc(-c2cc(C(=O)Nc3ccc(C(C)=O)cc3)c3ccccc3n2)cc(OC)c1OC`, which EC50 (protection from 2-deoxyglucose ATP loss, increase) is on record?
Its EC50 (protection from 2-deoxyglucose ATP loss, increase) is > 79 µM (inactive).

With `CCN(CC(=O)Nc1ccc(OC)cc1)C(=O)c1cc(-c2cccs2)nn1-c1ccccc1` as the compound, how does the EC50 (protection from 2-deoxyglucose ATP loss, increase) read?
The EC50 (protection from 2-deoxyglucose ATP loss, increase) was 16.1 µM (inactive) and 20.5 µM (inactive).

For `COc1ccc2c(c1OC)C(=O)N1c3ccccc3C(=O)N(c3ccc(Br)cc3)C21` (configuration not stated), which EC50 (protection from 2-deoxyglucose ATP loss, increase) is on record?
Its EC50 (protection from 2-deoxyglucose ATP loss, increase) is 11.3 µM (inactive).

For `COc1cccc(-c2cc(C(=O)Nc3cccc(C(C)=O)c3)c3ccccc3n2)c1`, which EC50 (protection from 2-deoxyglucose ATP loss, increase) is on record?
Its EC50 (protection from 2-deoxyglucose ATP loss, increase) is 37.3 µM (inactive).

`COc1cccc(CNC(=O)c2cc(-c3ccc(OC)c(OC)c3)nc3ccccc23)c1` was tested. Which EC50 (protection from 2-deoxyglucose ATP loss, increase) did it give?
The EC50 (protection from 2-deoxyglucose ATP loss, increase) was 18.5 µM (inactive).

For `COc1cccc(N2C(=O)c3ccccc3N3C(=O)c4ccccc4C23)c1` (configuration not stated), which EC50 (protection from 2-deoxyglucose ATP loss, increase) is on record?
Its EC50 (protection from 2-deoxyglucose ATP loss, increase) is > 79 µM (inactive).

How did the EC50 (protection from 2-deoxyglucose ATP loss, increase) turn out when `COc1cc(-c2cc(C(=O)Nc3cccc(C(F)(F)F)c3)c3ccccc3n2)cc(OC)c1OC` was run?
The EC50 (protection from 2-deoxyglucose ATP loss, increase) was > 79 µM (inactive).

For `COc1cccc(N2C(=O)c3ccccc3N3C(=O)c4c(ccc(OC)c4OC)C23)c1` (configuration not stated), which EC50 (protection from 2-deoxyglucose ATP loss, increase) is on record?
The EC50 (protection from 2-deoxyglucose ATP loss, increase) was 78 µM (inactive).

How did the EC50 (protection from 2-deoxyglucose ATP loss, increase) turn out when `COc1ccc(N2C(=O)c3ccccc3N3C(=O)c4c(ccc(OC)c4OC)C23)cc1` (configuration not stated) was run?
The EC50 (protection from 2-deoxyglucose ATP loss, increase) was 58.4 µM (inactive).

`COc1cc(-c2cc(C(=O)Nc3cccc(C(C)=O)c3)c3ccccc3n2)cc(OC)c1OC` was tested. Which EC50 (protection from 2-deoxyglucose ATP loss, increase) did it give?
The EC50 (protection from 2-deoxyglucose ATP loss, increase) was 13.7 µM (inactive) and 14.8 µM (inactive).

With `O=C1c2ccccc2N2C(=O)c3ccccc3C2N1c1cccc(Br)c1` (configuration not stated) as the compound, how does the EC50 (protection from 2-deoxyglucose ATP loss, increase) read?
The EC50 (protection from 2-deoxyglucose ATP loss, increase) was > 79 µM (inactive).

Which EC50 (protection from 2-deoxyglucose ATP loss, increase) does the source give for `COc1cc(-c2cc(C(=O)Nc3cccc(Cl)c3)c3ccccc3n2)cc(OC)c1OC` here?
The EC50 (protection from 2-deoxyglucose ATP loss, increase) was > 79 µM (inactive).

For `CCN(CC(=O)Nc1ccccc1)C(=O)c1cc(-c2cccs2)nn1-c1ccccc1`, which EC50 (protection from 2-deoxyglucose ATP loss, increase) is on record?
Its EC50 (protection from 2-deoxyglucose ATP loss, increase) is > 79 µM (inactive).

Which EC50 (protection from 2-deoxyglucose ATP loss, increase) does the source give for `CCN(CC(=O)Nc1ccc(OC)cc1)C(=O)c1cc(-c2cc(OC)c(OC)c(OC)c2)nc2ccccc12` here?
The EC50 (protection from 2-deoxyglucose ATP loss, increase) was 29.8 µM (inactive).

`CCOC(=O)c1cccc(NC(=O)c2cc(-c3cc(OC)c(OC)c(OC)c3)nc3ccccc23)c1` was tested. Which EC50 (protection from 2-deoxyglucose ATP loss, increase) did it give?
The EC50 (protection from 2-deoxyglucose ATP loss, increase) was > 79 µM (inactive).

With `COc1ccc2c(c1OC)C(=O)N1c3ccccc3C(=O)N(c3cccc(Br)c3)C21` (configuration not stated) as the compound, how does the EC50 (protection from 2-deoxyglucose ATP loss, increase) read?
Its EC50 (protection from 2-deoxyglucose ATP loss, increase) is 28.4 µM (inactive) and > 79 µM (inactive).

`COc1ccc2c(c1OC)C(=O)N1c3ccccc3C(=O)N(c3ccccc3)C21` (configuration not stated) was tested. Which EC50 (protection from 2-deoxyglucose ATP loss, increase) did it give?
The EC50 (protection from 2-deoxyglucose ATP loss, increase) was 31.9 µM (inactive).

With `COc1ccc2c(c1OC)C(=O)N1c3ccccc3C(=O)N(Cc3cccc(Cl)c3)C21` (configuration not stated) as the compound, how does the EC50 (protection from 2-deoxyglucose ATP loss, increase) read?
Its EC50 (protection from 2-deoxyglucose ATP loss, increase) is 37.9 µM (inactive).

Which EC50 (protection from 2-deoxyglucose ATP loss, increase) does the source give for `COc1ccc(-c2cc(C(=O)Nc3cccc(C(C)=O)c3)c3ccccc3n2)cc1OC` here?
The EC50 (protection from 2-deoxyglucose ATP loss, increase) was 42.8 µM (inactive).

Which EC50 (protection from 2-deoxyglucose ATP loss, increase) does the source give for `COc1ccc(-c2cc(C(=O)Nc3cccc(C(C)=O)c3)c3ccccc3n2)cc1` here?
The EC50 (protection from 2-deoxyglucose ATP loss, increase) was > 79 µM (inactive).

With `COc1cc(-c2cc(C(=O)Nc3cccc(F)c3)c3ccccc3n2)cc(OC)c1OC` as the compound, how does the EC50 (protection from 2-deoxyglucose ATP loss, increase) read?
The EC50 (protection from 2-deoxyglucose ATP loss, increase) was > 79 µM (inactive).

Which EC50 (protection from 2-deoxyglucose ATP loss, increase) does the source give for `COc1ccc2c(c1OC)C(=O)N1c3ccccc3C(=O)N(c3ccc(C)cc3)C21` (configuration not stated) here?
Its EC50 (protection from 2-deoxyglucose ATP loss, increase) is 29.1 µM (inactive).

With `COc1ccc2c(c1OC)C(=O)N1c3ccccc3C(=O)N(c3cccc(C)c3)C21` (configuration not stated) as the compound, how does the EC50 (protection from 2-deoxyglucose ATP loss, increase) read?
The EC50 (protection from 2-deoxyglucose ATP loss, increase) was 53.3 µM (inactive).

With `COc1cccc(CNC(=O)c2cc(-c3cc(OC)c(OC)c(OC)c3)nc3ccccc23)c1` as the compound, how does the EC50 (protection from 2-deoxyglucose ATP loss, increase) read?
Its EC50 (protection from 2-deoxyglucose ATP loss, increase) is 27.4 µM (inactive).

Which EC50 (protection from 2-deoxyglucose ATP loss, increase) does the source give for `COc1ccc2c(c1OC)C(=O)N1c3ccccc3C(=O)N(c3cccc(Cl)c3)C21` (configuration not stated) here?
Its EC50 (protection from 2-deoxyglucose ATP loss, increase) is 45 µM (inactive).

Which EC50 (protection from 2-deoxyglucose ATP loss, increase) does the source give for `COc1ccc2c(c1OC)C(=O)N1c3ccccc3C(=O)N(c3ccc(C(C)(C)C)cc3)C21` (configuration not stated) here?
The EC50 (protection from 2-deoxyglucose ATP loss, increase) was > 79 µM (inactive).

Which EC50 (protection from 2-deoxyglucose ATP loss, increase) does the source give for `CC(=O)c1cccc(NC(=O)c2cc(-c3ccccc3)nc3ccccc23)c1` here?
The EC50 (protection from 2-deoxyglucose ATP loss, increase) was 33.5 µM (inactive).

With `CCN(CC(=O)Nc1ccc(F)cc1)C(=O)c1cc(-c2cccs2)nn1-c1ccccc1` as the compound, how does the EC50 (protection from 2-deoxyglucose ATP loss, increase) read?
Its EC50 (protection from 2-deoxyglucose ATP loss, increase) is 36.1 µM (inactive).

`COc1ccc2c(c1OC)C(=O)N1c3ccccc3C(=O)N(c3cccc(F)c3)C21` (configuration not stated) was tested. Which EC50 (protection from 2-deoxyglucose ATP loss, increase) did it give?
The EC50 (protection from 2-deoxyglucose ATP loss, increase) was 41.1 µM (inactive).
